Measurements reported in article PMC12150210 (RSC Advances, 2025).

Target: hCG (whole human chorionic gonadotropin) (Homo sapiens, UniProt P0DN86)
Test: microscale thermophoresis
Format: binding

CO[C@@]1(NC(=O)C2SC(=C(C(N)=O)C(=O)O)S2)C(=O)N2C(C(=O)O)=C(CSc3nnnn3C)CS[C@@H]21 (stereo partly drawn) [Cefotetan, (6R,7S)-7-[[4-(2-amino-1-carboxy-2-oxoethylidene)-1,3-dithietane-2-carbonyl]amino]-7-methoxy-3-[(1-methyltetrazol-5-yl)sulfanylmethyl]-8-oxo-5-thia-1-azabicyclo[4.2.0]oct-2-ene-2-carboxylic acid]
Kd: 4.6 ± 3 µM
